ChEMBL document CHEMBL5154826, “Discovery of the Clinical Candidate MAK683: An EED-Directed, Allosteric, and Selective PRC2 Inhibitor for the Treatment of Advanced Malignancies” (J Med Chem, 2022)

Experiments:
[1] = Toxicity in Athymic BALB/c nude mouse xenografted with human Karpas-422 cells assessed as tolerability by measuring body weight at 10 to 300 mg/kg, po twice a day for 30 days; assay type: organism-based; conditions: in vivo, 720 h, dose 10-300 mg/kg, time 30 day
[2] = In vivo inhibition of PRC2 in PBMC collected from human Karpas-422 cells xenografted Athymic NTac:NIH-Whn nude rat assessed as reduction in H3K27me3 level at 3 mg/kg, po, qd for 57 days measured after 4 hrs of last dose by FACS method; assay type: functional; parameters: scale not given: the % may be the effect or the level left; conditions: time 57 day
[3] = Toxicity in Athymic NTac:NIH-Whn nude rat xenografted with human Karpas-422 cells assessed as reduction in body weight at 60 mg/kg, po, qd measured upto 140 days; assay type: organism-based; conditions: in vivo, 3360 h, time < 140 day
[4] = Dose normalized AUC in wild type Beagle dog at 2 mg/kg, po or 1 mg/kg, iv after 1 week by LC-MS/MS analysis; assay type: ADME, organism-based, Canis lupus familiaris; conditions: in vivo, 168 h, time 1 weeks
[5] = Dose normalized Cmax in ICR (CD-1) mouse at 2 mg/kg, po or 1 mg/kg, iv after 1 week by LC-MS/MS analysis; assay type: ADME, organism-based; conditions: in vivo, 168 h, time 1 weeks
[6] = Metabolic stability in mouse microsomes assessed as intrinsic clearance; assay type: ADME, Microsome; conditions: read-out: CLH
[7] = Metabolic stability in rat microsomes assessed as intrinsic clearance; assay type: ADME, Microsome; conditions: read-out: CLH
[8] = Ratio of drug level in human blood to plasma; assay type: ADME, cell-free; conditions: whole blood
[9] = biological target: Synaptic vesicular amine transporter (Homo sapiens, UniProt Q05940); test: Inhibition of vesicular monoamine transporter 2 (unknown origin)
[10] = Drugmetabolism in dog hepatocytes assessed as CYP3A4 mediated metabolite formation; assay type: ADME, cell-based, Canis lupus familiaris, Hepatocyte

Sequence of Synaptic vesicular amine transporter (Q05940 whole entry): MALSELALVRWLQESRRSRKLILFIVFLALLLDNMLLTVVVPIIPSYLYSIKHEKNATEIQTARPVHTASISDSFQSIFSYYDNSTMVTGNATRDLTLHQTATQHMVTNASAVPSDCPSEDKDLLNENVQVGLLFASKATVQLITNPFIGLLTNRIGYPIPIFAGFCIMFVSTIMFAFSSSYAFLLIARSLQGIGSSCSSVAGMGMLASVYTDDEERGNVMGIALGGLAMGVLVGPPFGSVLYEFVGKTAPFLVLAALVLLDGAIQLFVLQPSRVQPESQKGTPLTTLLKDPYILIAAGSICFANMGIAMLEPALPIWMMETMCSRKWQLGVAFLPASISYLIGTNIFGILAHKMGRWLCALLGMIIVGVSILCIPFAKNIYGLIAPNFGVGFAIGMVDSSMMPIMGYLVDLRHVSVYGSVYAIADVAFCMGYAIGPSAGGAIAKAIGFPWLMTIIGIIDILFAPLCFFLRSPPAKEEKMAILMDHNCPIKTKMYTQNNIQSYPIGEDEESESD

Question: Which Activity [1] does the source give for `Cc1ncccc1-c1cnc(NCc2c(F)ccc3c2CCO3)n2cnnc12` here?
Answer: The Activity was “Non-Toxic”.

Question: What about the Activity [2] of the same compound?
Answer: The Activity was 80%.

Question: And the Activity [3]?
Answer: Its Activity is “Toxic”.

Question: And the AUC/dose [4]?
Answer: Its AUC/dose is 2093 nM·h.

Question: What about the Cmax/dose [5] of the same compound?
Answer: The Cmax/dose was 356 nM.

Question: What about the microsomal CLint [6] of the same compound?
Answer: Its microsomal CLint is 22 µL/min/mg.

Question: And the microsomal CLint [7]?
Answer: The microsomal CLint was 22 µL/min/mg.

Question: What about the blood plasma ratio [8] of the same compound?
Answer: The blood plasma ratio was 0.78.

Question: What about the IC50 [9] of the same compound?
Answer: Its IC50 is 1800 nM.

Question: What about the Drug metabolism [10] of the same compound?
Answer: The Drug metabolism was “Metabolite_Detected”.
